Target: interaction between p53 and MDM2 proteins (Homo sapiens, UniProt Q00987)
Experiment: HTRF assay of inhibition of the p53-MDM2 interaction (GST-MDM2 / biotinylated p53 peptide)
Assay type: binding
Details: recombinant GST-tagged MDM2 and biotinylated p53 peptide, bsa:0.02%

interaction between p53 and MDM2 proteins, sequence (Q00987 whole entry): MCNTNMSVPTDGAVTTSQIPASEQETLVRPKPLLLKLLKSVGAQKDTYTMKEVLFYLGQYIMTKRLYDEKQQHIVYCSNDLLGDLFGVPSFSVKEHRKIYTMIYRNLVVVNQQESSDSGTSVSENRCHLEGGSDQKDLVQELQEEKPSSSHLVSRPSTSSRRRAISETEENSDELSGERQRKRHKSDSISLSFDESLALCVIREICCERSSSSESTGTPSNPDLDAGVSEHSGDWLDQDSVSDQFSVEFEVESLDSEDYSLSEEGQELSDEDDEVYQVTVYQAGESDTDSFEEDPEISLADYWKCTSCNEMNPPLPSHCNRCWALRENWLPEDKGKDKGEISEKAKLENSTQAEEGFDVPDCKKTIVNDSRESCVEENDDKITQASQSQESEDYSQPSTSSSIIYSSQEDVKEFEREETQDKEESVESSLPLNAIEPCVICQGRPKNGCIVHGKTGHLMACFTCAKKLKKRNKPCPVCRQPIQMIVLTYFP

Q: Which IC50 does the source give for COC(=O)c1cc(OC)c(NC(=O)[C@@H]2N[C@@H](CC(C)(C)C)[C@@]3(C(=O)Nc4cc(Cl)ccc43)[C@H]2c2cccc(Cl)c2F)cc1F (racemic) [Example 214, rac-4-{[(2′S,3′R,4′S,5′R)-6-chloro-4′-(3-chloro-2-fluoro-phenyl)-2′-(2,2-dimethyl-propyl)-2-oxo-1,2-dihydro-spiro[indole-3,3′-pyrrolidine]-5′-carbonyl]amino}-2-fluoro-5-methoxy-benzoic acid methyl ester] here?
A: Its IC50 is 20 nM.

Q: How did the IC50 turn out when COc1cc(C(=O)O)c(F)cc1NC(=O)[C@@H]1N[C@@H](CC(C)(C)C)[C@@]2(C(=O)Nc3cc(Cl)ccc32)[C@H]1c1cccc(Cl)c1F (racemic) [Example 215, rac-4-{[(2′S,3′R,4′S,5′R)-6-chloro-4′-(3-chloro-2-fluoro-phenyl)-2′-(2,2-dimethyl-propyl)-2-oxo-1,2-dihydro-spiro[indole-3,3′-pyrrolidine]-5′-carbonyl]-amino}-2-fluoro-5-methoxy-benzoic acid] was run?
A: Its IC50 is 11 nM.

Q: Which IC50 does the source give for CCOC(=O)CNc1ccc(NC(=O)[C@@H]2N[C@@H](CC(C)(C)C)[C@@]3(C(=O)Nc4cc(Cl)ccc43)[C@H]2c2cccc(Cl)c2F)cc1 (racemic) [Example 217, rac-(4-{[(2′S,3′R,4′S,5′R)-6-chloro-4′-(3-chloro-2-fluoro-phenyl)-2′-(2,2-dimethyl-propyl)-2-oxo-1,2-dihydro-spiro[indole-3,3′-pyrrolidine]-5′-carbonyl]-amino}-phenylamino)-acetic acid ethyl ester] here?
A: Its IC50 is 13 nM.

Q: How did the IC50 turn out when CC(C)(C)C[C@@H]1N[C@@H](C(=O)Nc2ccc(NCC(=O)O)cc2)[C@H](c2cccc(Cl)c2F)[C@]12C(=O)Nc1cc(Cl)ccc12 (racemic) [Example 218, rac-(4-{[(2′S,3′R,4′S,5′R)-6-chloro-4′-(3-chloro-2-fluoro-phenyl)-2′-(2,2-dimethyl-propyl)-2-oxo-1,2-dihydro-spiro[indole-3,3′-pyrrolidine]-5′-carbonyl]amino}-phenylamino)-acetic acid] was run?
A: Its IC50 is 16 nM.

Q: CCOC(=O)Cc1ccc(NC(=O)[C@@H]2N[C@@H](CC(C)(C)C)[C@@]3(C(=O)Nc4cc(Cl)ccc43)[C@H]2c2cccc(Cl)c2F)cc1 (racemic) [Example 219, rac-(4-{[(2′S,3′R,4′S,5′R)-6-chloro-4′-(3-chloro-2-fluoro-phenyl)-2′-(2,2-dimethyl-propyl)-2-oxo-1,2-dihydro-spiro[indole-3,3′-pyrrolidine]-5′-carbonyl]amino}-phenyl)-acetic acid ethyl ester] was tested. Which IC50 did it give?
A: Its IC50 is 13 nM.

Q: For CC(C)(C)C[C@@H]1N[C@@H](C(=O)Nc2ccc(CC(=O)O)cc2)[C@H](c2cccc(Cl)c2F)[C@]12C(=O)Nc1cc(Cl)ccc12 (racemic) [Example 220, rac-(4-{[(2′S,3′R,4′S,5′R)-6-chloro-4′-(3-chloro-2-fluoro-phenyl)-2′-(2,2-dimethyl-propyl)-2-oxo-1,2-dihydro-spiro[indole-3,3′-pyrrolidine]-5′-carbonyl]-amino}-phenyl)-acetic acid], which IC50 is on record?
A: The IC50 was 15 nM.

Q: COc1cc(OCC[S+](C)[O-])ccc1NC(=O)[C@@H]1N[C@@H](CC(C)(C)C)[C@@]2(C(=O)Nc3cc(Cl)ccc32)[C@H]1c1cccc(Cl)c1F (single isomer, unassigned) [Example 171, chiral (2′S,3′R,4′S,5′R)-6-chloro-4′-(3-chloro-2-fluoro-phenyl)-2′-(2,2-dimethyl-propyl)-2-oxo-1,2-dihydro-spiro[indole-3,3′-pyrrolidine]-5′-carboxylic acid [4-(2-methanesulfinyl-ethoxy)-2-methoxy-phenyl]-amide] was tested. Which IC50 did it give?
A: Its IC50 is 6 nM.

Q: For CC(C)(C)C[C@@H]1N[C@@H](C(=O)Nc2ccc(C(N)=O)cc2)[C@H](c2cccc(Cl)c2F)[C@]12C(=O)Nc1cc(Cl)ccc12 [Example 9, chiral (2′S,3′R,4′S,5′R)-6-chloro-4′-(3-chloro-2-fluoro-phenyl)-2′-(2,2-dimethyl-propyl)-2-oxo-1,2-dihydro-spiro[indole-3,3′-pyrrolidine]-5′-carboxylic acid (4-carbamoyl-phenyl)-amide], which IC50 is on record?
A: Its IC50 is 4 nM.

Q: With CC(=O)c1ccc(NC(=O)[C@@H]2N[C@@H](CC(C)(C)C)[C@@]3(C(=O)Nc4cc(Cl)ccc43)[C@H]2c2cccc(Cl)c2F)cc1 [Example 12, chiral (2′S,3′R,4′S,5′R)-6-chloro-4′-(3-chloro-2-fluoro-phenyl)-2′-(2,2-dimethyl-propyl)-2-oxo-1,2-dihydro-spiro[indole-3,3′-pyrrolidine]-5′-carboxylic acid (4-acetyl-phenyl)-amide] as the compound, how does the IC50 read?
A: The IC50 was 6 nM.

Q: COc1cc(NC(=O)[C@@H]2N[C@@H](CC(C)(C)C)[C@@]3(C(=O)Nc4cc(Cl)ccc43)[C@H]2c2cccc(Cl)c2F)ccc1C(=O)O [Example 17, chiral 4-{[(2′S,3′R,4′S,5′R)-6-chloro-4′-(3-chloro-2-fluoro-phenyl)-2′-(2,2-dimethyl-propyl)-2-oxo-1,2-dihydro-spiro[indole-3,3′-pyrrolidine]-5′-carbonyl]-amino}-2-methoxy-benzoic acid] was tested. Which IC50 did it give?
A: Its IC50 is 4 nM.

Q: For CC(C)(C)C[C@@H]1N[C@@H](C(=O)Nc2ccc(OCCO)cc2)[C@H](c2cccc(Cl)c2F)[C@]12C(=O)Nc1cc(Cl)ccc12 [Example 20, chiral (2′S,3′R,4′S,5′R)-6-chloro-4′-(3-chloro-2-fluoro-phenyl)-2′-(2,2-dimethyl-propyl)-2-oxo-1,2-dihydro-spiro[indole-3,3′-pyrrolidine]-5′-carboxylic acid [4-(2-hydroxy-ethoxy)-phenyl]-amide], which IC50 is on record?
A: Its IC50 is 7 nM.

Q: COc1cc(NC(=O)[C@@H]2N[C@@H](CC(C)(C)C)[C@@]3(C(=O)Nc4cc(Cl)ccc43)[C@H]2c2cccc(Cl)c2F)ccc1C(N)=O [Example 23, chiral (2′S,3′R,4′S,5′R)-6-chloro-4′-(3-chloro-2-fluoro-phenyl)-2′-(2,2-dimethyl-propyl)-2-oxo-1,2-dihydro-spiro[indole-3,3′-pyrrolidine]-5′-carboxylic acid (4-carbamoyl-3-methoxy-phenyl)-amide] was tested. Which IC50 did it give?
A: Its IC50 is 5 nM.

Q: With CC(C)(C)C[C@@H]1N[C@@H](C(=O)Nc2ccc(C(N)=O)c(Cl)c2)[C@H](c2cccc(Cl)c2F)[C@]12C(=O)Nc1cc(Cl)ccc12 [Example 26, chiral (2′S,3′R,4′S,5′R)-6-chloro-4′-(3-chloro-2-fluoro-phenyl)-2′-(2,2-dimethyl-propyl)-2-oxo-1,2-dihydro-spiro[indole-3,3′-pyrrolidine]-5′-carboxylic acid (4-carbamoyl-3-chloro-phenyl)-amide] as the compound, how does the IC50 read?
A: The IC50 was 6 nM.

Q: CN(C)C(=O)c1ccc(NC(=O)[C@@H]2N[C@@H](CC(C)(C)C)[C@@]3(C(=O)Nc4cc(Cl)ccc43)[C@H]2c2cccc(Cl)c2F)cc1 [Example 35, chiral (2′S,3′R,4′S,5′R)-6-chloro-4′-(3-chloro-2-fluoro-phenyl)-2′-(2,2-dimethyl-propyl)-2-oxo-1,2-dihydro-spiro[indole-3,3′-pyrrolidine]-5′-carboxylic acid (4-dimethylcarbamoyl-phenyl)-amide] was tested. Which IC50 did it give?
A: The IC50 was 5 nM.

Q: CC(C)(C)C[C@@H]1N[C@@H](C(=O)Nc2ccc(C(N)=O)cc2)[C@H](c2cccc(Cl)c2F)[C@]12C(=O)Nc1cc(Cl)c(F)cc12 [Example 50, chiral (2′S,3′R,4′S,5′S)-6-chloro-4′-(3-chloro-2-fluoro-phenyl)-2′-(2,2-dimethyl-propyl)-5-fluoro-2-oxo-1,2-dihydro-spiro[indole-3,3′-pyrrolidine]-5′-carboxylic acid (4-carbamoyl-phenyl)-amide] was tested. Which IC50 did it give?
A: The IC50 was 6 nM.

Q: With CC(C)(C)C[C@@H]1N[C@@H](C(=O)Nc2ccc(C(N)=O)cc2F)[C@H](c2cccc(Cl)c2F)[C@]12C(=O)Nc1cc(Cl)ccc12 [Example 54, chiral (2′S,3′R,4′S,5′R)-6-chloro-4′-(3-chloro-2-fluoro-phenyl)-2′-(2,2-dimethyl-propyl)-2-oxo-1,2-dihydro-spiro[indole-3,3′-pyrrolidine]-5′-carboxylic acid (4-carbamoyl-2-fluoro-phenyl)-amide] as the compound, how does the IC50 read?
A: The IC50 was 7 nM.

Q: Which IC50 does the source give for COc1cc(C(N)=O)ccc1NC(=O)[C@@H]1N[C@@H](CC(C)(C)C)[C@@]2(C(=O)Nc3cc(Cl)ccc32)[C@H]1c1cccc(Cl)c1F [Example 60, chiral (2′S,3′R,4′S,5′R)-6-chloro-4′-(3-chloro-2-fluoro-phenyl)-2′-(2,2-dimethyl-propyl)-2-oxo-1,2-dihydro-spiro[indole-3,3′-pyrrolidine]-5′-carboxylic acid (4-carbamoyl-2-methoxy-phenyl)-amide] here?
A: The IC50 was 5 nM.

Q: For CC(C)(C)C[C@@H]1N[C@@H](C(=O)Nc2ccc(C(N)=O)cc2)[C@H](c2cccc(Cl)c2)[C@]12C(=O)Nc1cc(Cl)ccc12 [Example 65B, chiral (2′S,3′R,4′R,5′R)-6-chloro-4′-(3-chloro-phenyl)-2′-(2,2-dimethyl-propyl)-2-oxo-1,2-dihydro-spiro[indole-3,3′-pyrrolidine]-5′-carboxylic acid (4-carbamoyl-phenyl)-amide], which IC50 is on record?
A: The IC50 was 6 nM.

Q: For CC(C)(C)C[C@@H]1N[C@@H](C(=O)Nc2ccc(C(N)=O)cc2)[C@H](c2cccc(Cl)c2F)[C@]12C(=O)Nc1cc(Cl)cc(F)c12 [Example 74, chiral (2′S,3′R,4′S,5′R)-6-chloro-4′-(3-chloro-2-fluoro-phenyl)-2′-(2,2-dimethyl-propyl)-4-fluoro-2-oxo-1,2-dihydro-spiro[indole-3,3′-pyrrolidine]-5′-carboxylic acid (4-carbamoyl-phenyl)-amide], which IC50 is on record?
A: The IC50 was 6 nM.

Q: With COc1cc(C(N)=O)ccc1NC(=O)[C@@H]1N[C@@H](CC(C)(C)C)[C@@]2(C(=O)Nc3cc(Cl)cc(F)c32)[C@H]1c1cccc(Cl)c1F [Example 77, chiral (2′S,3′R,4′S,5′R)-6-chloro-4′-(3-chloro-2-fluoro-phenyl)-2′-(2,2-dimethyl-propyl)-4-fluoro-2-oxo-1,2-dihydro-spiro[indole-3,3′-pyrrolidine]-5′-carboxylic acid (4-carbamoyl-2-methoxy-phenyl)-amide] as the compound, how does the IC50 read?
A: The IC50 was 5 nM.

Q: How did the IC50 turn out when COc1cc(C(=O)O)ccc1NC(=O)[C@@H]1N[C@@H](CC(C)(C)C)[C@@]2(C(=O)Nc3cc(Cl)ccc32)[C@H]1c1cccc(Cl)c1F [Example 111, chiral 4-{[(2′S,3′R,4′S,5′R)-6-chloro-4′-(3-chloro-2-fluoro-phenyl)-2′-(2,2-dimethyl-propyl)-2-oxo-1,2-dihydro-spiro[indole-3,3′-pyrrolidine]-5′-carbonyl]-amino}-3-methoxy-benzoic acid] was run?
A: The IC50 was 5 nM.

From patent US8088815B2, “Spiroindolinone pyrrolidines” (Hoffman-La Roche Inc., priority 2009, dated 2012)
